Laboratory results from patent publication US6572860B1, “Immunogenic conjugated polypeptide for treatment of herpes simplex virus” (CEL-SCI Corporation, priority 1997, dated 2003).
“Also recorded” adds a separate entry of the source.

Key:
[1] = tested on: HSV-1; assay: Intraperitoneal challenge of vaccinated mice with an LD50 of HSV-1: symptoms and survival; assay type: in vivo; conditions: Balb/c mice 4 wk old, n=6, vaccinated twice, challenged with an LD50 of HSV-1; for disease symptoms (symptom score 1-5): FIG. 4; for survival / death: FIG. 5
Protocol: Similar tests as described above were carried out. Balb/c mice (4 wk old) (n=6) were unvaccinated (NO VAC) or vaccinated and revaccinated two weeks later with the H1 peptide or the indicated conjugated polypeptide. The mice were then challenged two weeks later with an LD50 of HSV-1. Symptoms were scored daily as:
(§1) 1. non-specific mild symptoms
(§2) 2. mild swelling of the abdomen
(§3) 3. significant swelling of the abdomen and malaise
The results are shown in FIG. 4 for symptoms, in FIG. 5 for survival and in FIG. 6 for DTH.

[2] = tested on: ultraviolet inactivated HSV; assay: Delayed type hypersensitivity (DTH), ear pinna swelling at 24, 48 and 96 hours (FIG. 6); assay type: in vivo, Balb/c mice; conditions: 4 weeks after last immunization, 24, 48 and 96 hours after injection of UV inactivated HSV
Protocol: DTH response was evaluated 4 weeks after the last immunization for the vaccinated mice and three unvaccinated HSV challenged mice which had recovered from disease (Ctrl)
(§4) The protocol used in this experiment differed slightly from that of FIG. 3. Swelling in the right ear pinna was measured by micrometer prior to and at 24, 48 and 96 hours following injection of ultraviolet inactivated HSV and compared to the left ear pinna which had been injected with an uninfected Vero cell extract.

[3] = tested on: HSV-1; assay: Intraperitoneal HSV-1 challenge of vaccinated mice, sub-lethal (<LD50) challenge: symptoms and survival; assay type: in vivo, Balb/c mice; conditions: for Symptomatic conditions after viral challenge (symptom score 1-5) / survival after viral challenge: Balb/c mice; for Symptomatic conditions after viral challenge (symptom score 1-5): 2 immunizations of 33 nmoles in Novasome adjuvant, i.p. sub-lethal HSV-1 challenge two weeks later; for survival after viral challenge: sub-lethal i.p. HSV-1 challenge, FIG. 2
From the text: An intraperitoneal challenge model using mice test animal was selected although the predominant presentation of HSV disease is not intraperitoneal since a reproducible course of disease occurs following viral challenge; since the viral challenge dose can be well defined and readily delivered by intraperitoneal injection since the symptoms are readily detected and the course of disease can be qualitatively evaluated; and since the relevant parameter of survival may be readily evaluated. Immune function studies may also be conducted in vitro to further characterize the responses to the test vaccines.
In a series of experiments, groups (12 per group) of 3 week old Balb/c female mice (Taconic Farms, Germantown, N.Y.) are immunized and test bled according to the following schedule. Schedule A: immunizations on day 0 and day 14, and two weeks later nine mice of each group are challenged moderately with a lethal dose (<LD50) of HSV (H129 clinical strain) administered intraperitoneally. In this regard, young Balb/c mice show a defined course of disease which progresses from abdominal swelling, lethargy, paraplegia, to death within 1 to 2 weeks. Therefore, the effectiveness of the vaccinations may be readily determined.
(§5) Each immunization consisted of 33 nmoles of conjugated polypeptide or non-conjugated antigenic peptide H1 (equivalent to 100 μg of the JH1 vaccine). The peptide was mixed with the Novasome liposomal adjuvant (50% v/v). The mice were immunized twice with a two week interval between inoculations. After an additional two weeks, most of the mice received an intraperitoneal challenge with the EKN clinical strain of HSV-1. The mice were evaluated daily for symptoms. […] Blood was obtained from selected mice for ELISA studies prior to immunization and prior to virus challenge. The results are shown in FIG. 1 for symptom (on a daily basis) and in FIG. 2 for survival following vaccination and sub-lethal challenge.
In FIG. 1 symptoms were scored daily as:
as §1, §2, §3

[4] = tested on: ultraviolet inactivated HSV; assay: Delayed type hypersensitivity (DTH), ear pinna swelling at 48 hours (FIG. 3); assay type: in vivo, Balb/c mice; conditions: vaccinated unchallenged mice, 4 weeks after last immunization, 48 hours after injection of UV inactivated HSV
Protocol: as §5
DTH response was evaluated 4 weeks after the last immunization for the vaccinated mice and three unvaccinated HSV challenged mice which had recovered from disease (C). Swelling of the right ear pinna was measured at 48 hours following injection of ultraviolet inactivated HSV and compared to the left ear pinna which had been injected with buffer.
In another series of parallel experiments Balb/c female mice (n=9) were vaccinated with the H1 peptide or the JH1, GH1 or LH1 conjugated polypeptides according to the same protocol as for the HSV-1 challenge experiment described above.

[5] = tested on: HSV-1; assay: HSV-1 challenge of mice vaccinated with B1 peptides: survival (FIG. 7); assay type: in vivo; conditions: C57BI6 mice; for survival (mice surviving of 9): after day 8
From the text: In order to further establish the effectiveness of conjugated peptides according to this invention as effective vaccines for treatment of herpes simplex virus, the HSV epitope B1, which is a T cell epitope (aa 498-505, SSIEFARL) of glycoprotein B found in both HSV-1 or HSV-2 (see Hanke, et al, J. Virol. 65:1177-86; and Bonneau, et al, Virology 195:62-70) was selected and evaluated with either peptide J or peptide G or peptide L as described above. Namely, the conjugated peptides GB1, JB1 and LB1, as described in Table 1 above, were tested under the same conditions as previously described except that in place of the Balb/c mice, C57BI6 mice were vaccinated with the B1 conjugated peptides or non-conjugated B1 peptide (SEQ ID NO:4). The mice immunized with the B1 peptide or with the conjugated peptide LB1 were not protected from HSV-1 challenge (0 of 9 or 1 of 9 survival, respectively, after day 8) and, in fact the B1 and LB1 immunized mice fared worse than the control (unvaccinated) mice (2 of 9 survival after day 8).

[6] = tested on: infected cell extracts; assay: ELISA of serum antibody response, infected cell extracts as antigen (antivirus response); assay type: in vivo, C57BI6 mice; conditions: vaccinated and HSV-1 challenged mice, pooled serum, 2 weeks after virus challenge
Protocol: (§6) The antibody responses of vaccinated and unchallenged mice, vaccinated and challenged mice and unvaccinated and challenged mice were measured by ELISA assay. Serum was obtained 7 weeks after the initial immunization or 2 weeks after the virus challenge. B1 peptide or infected cell extracts were bound to the ELISA plate as antigen. Results are shown in Table 3 and were taken from pooled serum taken from 2 or 3 mice. The results were corrected for non-specific responses by subtracting the absorbance obtained towards an unrelated antigen.

[7] = tested on: B1 peptide; assay: ELISA of serum antibody response, B1 peptide as antigen; assay type: in vivo, C57BI6 mice
Protocol: as §6

[8] = tested on: ultraviolet inactivated HSV; assay: DTH tests on unchallenged mice immunized with B1 peptides; assay type: in vivo; conditions: 3 unchallenged immunized C57BI6 mice
Protocol: as §4

[9] = tested on: peptide H1; assay: ELISA of antibody responses to peptide H1; assay type: in vivo; conditions: immunized Balb/c mice
Protocol: as §5

[10] = 9 challenged mice per group, sub-lethal HSV-1 challenge, FIG. 1
[11] = vaccinated and unchallenged mice, pooled serum of 2 or 3 mice, 7 weeks after initial immunization

“DLL KN GER IEK VEG GGL YRT FAG NPR A (SEQ ID NO:10) (DLLKNGERIEKVEGGGLYRTFAGNPRA) [JH1, conjugated polypeptide of Peptide J (β-2 microglobulin), GGG spacer and peptide H1 of ICP27]” was tested, and the “disease symptoms (symptom score 1-5)” value [1] was “protected from disease symptoms”, the survival / death [1] was “protected from disease symptoms and death” and the “DTH response (redness and swelling of ear pinna)” value [2] was “DTH was observed on each day”. For the same substance, the “number of mice showing significant symptoms” value [3, 10] was “two”, the “number of mice that died” value [3, 10] was “one” and the “Symptomatic conditions after viral challenge (symptom score 1-5)” value (“Symptomatic conditions” for short) ([3]; FIG. 1) was “protected from disease”. The “survival after viral challenge” value [3] was “maximal survival” and the “DTH response (redness and swelling of ear pinna)” value [4] was “DTH was observed”.
“DLL KNG ERI EKV EGG GSS IEF ARL (SEQ ID NO:16) (DLLKNGERIEKVEGGGSSGSSIEFARL) [JB1, conjugated polypeptide of Peptide J, GGG spacer and peptide B1 of glycoprotein B]” was tested, and the “protection from HSV-1 challenge” value [5] was “partial protection”, the survival [5] was 44.4% and the “survival (mice surviving of 9)” value [5] was 4 of 9. For the same substance, the “ANTIVIRUS RESPONSE (ELISA absorbance, corrected for non-specific response)” value [6] was 0.445, the “B1 PEPTIDE RESPONSE (ELISA absorbance, corrected for non-specific response)” value [7, 11] was 0.025 and the DTH response [8] was “exhibited a DTH response”.
In the case of “LHG PEI LDV PST GGG LYR TFA GNP RA (SEQ ID NO:13) (LHGPEILDVPSTGGGLYRTFAGNPRA) [LH1, conjugated polypeptide of Peptide L, GGG spacer and peptide H1]”, the “disease symptoms (symptom score 1-5)” value [1] is reported as “severe symptoms”, the survival / death [1] is reported as “death” and the “DTH response (redness and swelling of ear pinna)” value [2] is reported as “Some swelling but no redness was observed for some but not all of the mice”. The “Symptomatic conditions” value ([3]; FIG. 1) was “more severe symptoms throughout the course of infection and death; also recorded: seemed to exacerbate the disease symptoms”, the “survival after viral challenge” value [3] was “seemed to exacerbate the disease symptoms” and the “DTH response (redness and swelling of ear pinna)” value [4] was “not”.
For “LHG PEI LDV PST GGG SSI EFA RL (SEQ ID NO:18) (LHGPEILDVPSTGGGSSIEFARL) [LB1, conjugated polypeptide of Peptide L, GGG spacer and peptide B1]”, the “protection from HSV-1 challenge” value [5] was “not protected”, the “survival (mice surviving of 9)” value [5] was 1 of 9 and the “B1 PEPTIDE RESPONSE (ELISA absorbance, corrected for non-specific response)” value [7, 11] was 0.031.
With “LYRTFAGNPRA (SEQ ID NO:1) [H1, non-conjugated antigenic peptide, amino acid residues 322 to 332 of the ICP27 protein of HSV-1, reference compound]” the “disease symptoms (symptom score 1-5)” value [1] was “severe symptoms”, the survival / death [1] was “death” and the “Antibody responses to the antigenic peptide by ELISA” value [9] was “undetectable”. The “DTH response (redness and swelling of ear pinna)” value [2] was “Some swelling but no redness was observed for some but not all of the mice”, the “Symptomatic conditions” value ([3]; FIG. 1) was “more severe symptoms throughout the course of infection and death; also recorded: seemed to exacerbate the disease symptoms” and the “survival after viral challenge” value [3] was “seemed to exacerbate the disease symptoms”. The “DTH response (redness and swelling of ear pinna)” value [4] was “not”.
In the case of “NGQ EEK AGV VST GLI GGG LYR TFA GNP RA (SEQ ID NO:12) (NGQEEKAGVVSTGLIGGGLYRTFAGNPRA) [GH1, conjugated polypeptide of Peptide G, GGG spacer and peptide H1]”, the “disease symptoms (symptom score 1-5)” value [1] is reported as “severe symptoms”, the survival / death [1] is reported as “death” and the “DTH response (redness and swelling of ear pinna)” value [2] is reported as “Some swelling but no redness was observed for some but not all of the mice”. For the same substance, the “Symptomatic conditions” value ([3]; FIG. 1) was “more severe symptoms throughout the course of infection and death; also recorded: seemed to exacerbate the disease symptoms”, the “survival after viral challenge” value [3] was “seemed to exacerbate the disease symptoms” and the “DTH response (redness and swelling of ear pinna)” value [4] was “not”.
In the case of “NGQ EEK AGV VST GLI GGG SSI EFA RL (SEQ ID NO:17) (NGQEEKAGVVSTGLIGGGSSIEFARL) [GB1, conjugated polypeptide of Peptide G, GGG spacer and peptide B1]”, the “protection from HSV-1 challenge” value [5] is reported as “partial protection”, the survival [5] is reported as 55.5% and the “survival (mice surviving of 9)” value [5] is reported as 5 of 9. For the same substance, the “B1 PEPTIDE RESPONSE (ELISA absorbance, corrected for non-specific response)” value ([7]; vaccinated and HSV-1 challenged mice, pooled serum, 2 weeks after virus challenge) was 0.017, the “B1 PEPTIDE RESPONSE (ELISA absorbance, corrected for non-specific response)” value [7, 11] was 0.035 and the DTH response [8] was “did not exhibit a DTH response”.
In the case of “SSIEFARL (SEQ ID NO:4) [B1, non-conjugated antigenic peptide, amino acid residues 498 to 505 from glycoprotein B of HSV-1, reference compound]”, the “protection from HSV-1 challenge” value [5] is reported as “not protected”, the “survival (mice surviving of 9)” value [5] is reported as 0 of 9 and the “B1 PEPTIDE RESPONSE (ELISA absorbance, corrected for non-specific response)” value [7, 11] is reported as 0.031. The DTH response [8] was “did not exhibit a DTH response”.
